Legend:
[1] = biological target: CDC2 (Homo sapiens, UniProt P06493); test: Kinobeads competition binding, L-363 cell lysate; set-up: capturing and identification of kinases from L-363 cell lysate; endogenous in cells; host or cells: L-363 cells (DSMZ ACC49), pre-treated with MG132; details: 10 μM free compound, L-363 lysate
Procedure: (§1) To one aliquot of cell lysate 10 μM of the free compound (FIG. 3, CZC31326) was added and allowed to bind to proteins in the lysate. Then the affinity matrix with the immobilized compound was added to capture proteins that were not interacting with the previously added free compound. Beads were separated from the lysate and bead bound proteins were eluted in SDS sample buffer and subsequently separated by SDS-Polyacrylamide gel electrophoresis (FIG. 8). Suitable gel bands were cut out and subjected to in-gel proteolytic digestion with trypsin. The second lysate aliquot was processed identically, however no free compound was added (DMSO solvent control). Peptides originating from samples 1 and 2 were labeled with iTRAQ reagents (iTRAQ 114 and iTRAQ 117) and the combined samples were analyzed with a nano-flow liquid chromatography system coupled online to a tandem mass spectrometer (LC-MS/MS) experiment followed by iTRAQ reporter ion quantification in the MS/MS spectra as described in Example 2.
(§2) For this experiment the human plasma cell leukaemia line L-363 was used (German Collection of Microorganisms and Cell Cultures, DSMZ number ACC49, Braunschweig, Germany). Cells were treated for three hours with 20 μM of the proteasome inhibitor MG132 (Z-Leu-Leu-Leu-al, Sigma C2211) prior to cell harvesting.

[2] = biological target: CaMKK2 (Homo sapiens, UniProt Q96RR4); test: Kinobeads competition binding, L-363 cell lysate; set-up: capturing and identification of kinases from L-363 cell lysate; endogenous in cells; host or cells: L-363 cells (DSMZ ACC49), pre-treated with MG132; details: 10 μM free compound, L-363 lysate
CaMKK2, sequence (Q96RR4 whole entry): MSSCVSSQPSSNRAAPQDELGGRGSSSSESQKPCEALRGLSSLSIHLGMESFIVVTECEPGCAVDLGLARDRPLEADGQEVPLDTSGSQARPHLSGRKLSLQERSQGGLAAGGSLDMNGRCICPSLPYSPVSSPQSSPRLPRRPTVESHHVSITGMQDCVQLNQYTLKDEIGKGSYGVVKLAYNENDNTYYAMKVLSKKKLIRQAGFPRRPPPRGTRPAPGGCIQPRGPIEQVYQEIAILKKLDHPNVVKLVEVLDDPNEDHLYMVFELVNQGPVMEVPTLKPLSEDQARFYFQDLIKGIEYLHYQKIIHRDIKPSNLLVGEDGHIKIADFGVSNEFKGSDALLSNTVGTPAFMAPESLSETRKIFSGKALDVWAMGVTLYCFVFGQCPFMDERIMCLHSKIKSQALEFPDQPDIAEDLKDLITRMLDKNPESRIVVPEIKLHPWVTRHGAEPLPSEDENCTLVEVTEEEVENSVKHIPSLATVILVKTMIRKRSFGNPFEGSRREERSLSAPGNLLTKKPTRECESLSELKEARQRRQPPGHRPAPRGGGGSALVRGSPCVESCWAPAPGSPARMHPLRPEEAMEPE
Procedure: as §1, §2

[3] = biological target: CK2a1 (Homo sapiens, UniProt P68400); test: Kinobeads competition binding, L-363 cell lysate; set-up: capturing and identification of kinases from L-363 cell lysate; endogenous in cells; host or cells: L-363 cells (DSMZ ACC49), pre-treated with MG132; details: 10 μM free compound, L-363 lysate
CK2a1, sequence (P68400 whole entry): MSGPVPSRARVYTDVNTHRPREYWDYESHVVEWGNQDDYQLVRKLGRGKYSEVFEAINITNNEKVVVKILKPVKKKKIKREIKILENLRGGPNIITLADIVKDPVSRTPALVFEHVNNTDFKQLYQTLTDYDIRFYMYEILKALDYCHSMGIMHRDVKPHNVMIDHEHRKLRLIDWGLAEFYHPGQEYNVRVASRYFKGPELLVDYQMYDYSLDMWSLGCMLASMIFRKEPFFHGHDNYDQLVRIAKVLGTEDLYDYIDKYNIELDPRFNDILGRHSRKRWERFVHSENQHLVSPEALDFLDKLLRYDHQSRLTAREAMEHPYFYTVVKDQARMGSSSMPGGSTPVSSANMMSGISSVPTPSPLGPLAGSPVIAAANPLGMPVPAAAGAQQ
Procedure: as §1, §2

[4] = test system: PITSLRE; test: Kinobeads competition binding, HL60 cell lysate; set-up: species or system human; details: 10 μM free compound
Procedure: To one aliquot of cell lysate 10 μM of the free compound (FIG. 3, CZC31326) was added and allowed to bind to proteins in the lysate. Then the affinity matrix with the immobilized compound (Example 1) was added to capture proteins that were not interacting with the previously added free compound. Beads were separated from the lysate and bead bound proteins were eluted in SDS sample buffer and subsequently separated by SDS-Polyacrylamide gel electrophoresis (FIG. 4). Suitable gel bands were cut out and subjected to in-gel proteolytic digestion with trypsin. The second lysate aliquot was processed identically, however no free compound was added (DMSO solvent control). Peptides originating from samples 1 and 2 were labeled with iTRAQ reagents (iTRAQ 114 and iTRAQ 117) and the combined samples were analyzed with a nano-flow liquid chromatography system coupled online to a tandem mass spectrometer (LC-MS/MS) experiment followed by iTRAQ reporter ion quantification in the MS/MS spectra (Ross et al., 2004. Mol. Cell. Proteomics 3(12):1154-1169). […] The iTRAQ reagents are a set of multiplexed, amine-specific, stable isotope reagents that can label peptides on amino groups in up to four different biological samples enabling simultaneous identification and quantitation of peptides. […]

[5] = biological target: MARK2 (Homo sapiens, UniProt Q7KZI7); test: Kinobeads competition binding, L-363 cell lysate; set-up: endogenous in cells; details: 10 μM free compound, L-363 lysate
MARK2, sequence (Q7KZI7 whole entry): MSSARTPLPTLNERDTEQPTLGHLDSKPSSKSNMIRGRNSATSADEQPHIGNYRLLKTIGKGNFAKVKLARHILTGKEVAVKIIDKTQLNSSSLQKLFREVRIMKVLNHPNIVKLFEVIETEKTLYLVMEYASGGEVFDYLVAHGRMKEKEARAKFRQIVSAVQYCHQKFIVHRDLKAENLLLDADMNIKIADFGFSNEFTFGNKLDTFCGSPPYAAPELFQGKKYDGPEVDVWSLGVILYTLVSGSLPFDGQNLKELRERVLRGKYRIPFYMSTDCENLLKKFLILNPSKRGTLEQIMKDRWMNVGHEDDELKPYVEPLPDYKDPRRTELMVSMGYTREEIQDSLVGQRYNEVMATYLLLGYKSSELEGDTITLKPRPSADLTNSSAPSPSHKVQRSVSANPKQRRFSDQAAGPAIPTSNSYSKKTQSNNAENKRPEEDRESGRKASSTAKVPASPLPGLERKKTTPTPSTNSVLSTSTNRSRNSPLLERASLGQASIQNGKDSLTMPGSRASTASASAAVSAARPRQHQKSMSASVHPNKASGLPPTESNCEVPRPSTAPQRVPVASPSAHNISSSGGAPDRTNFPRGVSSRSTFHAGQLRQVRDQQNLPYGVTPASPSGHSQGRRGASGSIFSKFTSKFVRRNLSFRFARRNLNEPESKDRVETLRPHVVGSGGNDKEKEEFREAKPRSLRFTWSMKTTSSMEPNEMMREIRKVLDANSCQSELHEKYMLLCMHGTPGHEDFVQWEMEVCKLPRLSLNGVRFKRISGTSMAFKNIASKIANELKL
Method in brief: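 L-363 plasma cell leukaemia cells were treated 3 h with 20 μM MG132 before harvest. Lysate was preincubated with 10 μM free compound or DMSO, then captured on matrix bearing immobilized compound; bound proteins were eluted, SDS-PAGE separated, trypsin-digested, iTRAQ-labeled and quantified by LC-MS/MS reporter ions.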

CDC2, sequence (P06493 whole entry): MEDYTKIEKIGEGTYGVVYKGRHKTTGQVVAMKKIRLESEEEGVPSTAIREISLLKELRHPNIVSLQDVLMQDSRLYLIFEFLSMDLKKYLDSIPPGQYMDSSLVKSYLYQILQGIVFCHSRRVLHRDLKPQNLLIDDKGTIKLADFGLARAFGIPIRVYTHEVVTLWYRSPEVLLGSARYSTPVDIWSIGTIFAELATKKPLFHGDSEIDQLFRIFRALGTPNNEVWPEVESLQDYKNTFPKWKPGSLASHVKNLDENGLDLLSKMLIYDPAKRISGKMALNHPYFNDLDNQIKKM

`CS(=O)(=O)Nc1ccccc1Nc1nc(Nc2cccc(OCCN)c2)ncc1Cl` [CZC31326, N-(2-(2-(3-(2-aminoethoxy)phenylamino)-5-chloropyrimidin-4-ylamino)phenyl)methanesulfonamide] showed an inhibition at 10 µM [1] of 95.1%, an inhibition at 10 µM [2] of 97% and an inhibition at 10 µM [3] of 97.9%. The Competition % [4] was 94.8% and the inhibition at 10 µM [5] was 97%.

Reference: patent publication US20120270237A9, “METHODS FOR THE IDENTIFICATION OF KINASE INTERACTING MOLECULES AND FOR THE PURIFICATION OF KINASE PROTEINS” (Cellzone AG, priority 2009, published 2012)
